Measured values as given in patent US20130190169A1, “SYNERGISTIC FUNGICIDAL COMBINATION” (priority 2010, published 2013).

Tested on: strain Mg Ref 1 of M. graminicola
Test: In vitro evaluation of the sensitivity level of M. graminicola towards epoxiconazole and folpet alone or in admixture (mycelial growth by optical density, 96-well microtitre plate, Wadley method)
Type: cell-based, Mycosphaerella graminicola
Settings: Zymoseptoria tritici, 168 h, fungicide used alone, 7 days, 19° C., OD 405 nm
Procedure: The Wadley method is well-known method for determining whether synergy exists. In the Wadley method, synergistic activity is determined from dose response curves. With this method, the efficacy of the active ingredient (“a.i.”) is determined by comparing the degree of fungal attack on treated plants with that on untreated, similarly inoculated and incubated check plants. Each a.i. is generally tested at multiple (e.g., 6) concentrations, and dose response curves are generated. The dose response curves are used to establish the EC50 (i.e., the effective concentration of a.i. providing 50% disease control) of the individual compounds as well as of the combinations (EC50observed). The experimentally found values of the mixture at a given weight ratio are compared ith the values that would have been found were only a complementary efficacy of the components was present (EC50 (A+B)expected). The EC50 (A+B)expected is generally calculated according to Wadley (Levi et al., EPPO-Bulletin 16, 1986, 651-657) or (Wadley, F. M., U.S. Dep. Agric., Res. Adm., Bur. Entomol. And Plant Quar. ET-223, 1945, 8) as follows:
EC50(A+B)expected−(a+b)/[(a/EC50(A)observed)+b/EC50(B)observed)] […]
The degree of mycelial growth in the liquid medium was assessed by measuring the optical density of the wells containing the spore suspensions and fungicide concentrations. […]

| SMILES | EC50 |
| --- | --- |
| Fc1ccc([C@]2(Cn3cncn3)O[C@H]2c2ccccc2Cl)cc1 (racemic) [Epoxiconazole, (2RS;3SR)-1-[3-(2-chlorophenyl)-2,3-epoxy-2-(4-fluorophenyl)propyl]-1H-1,2,4-triazole] | 0.01 µg/mL |
| O=C1c2ccccc2C(=O)N1SC(Cl)(Cl)Cl [Folpet, N-(trichloromethanesulfenyl)phthalimide] | 2.39 µg/mL |
